Measurements published in publication PMC10734441, “Comparative biodegradation analysis of three compostable polyesters by a marine microbial community” (Applied and Environmental Microbiology, 2023).

Columns and labels:
Test in all cases: 4-nitrophenol release, absorbance at […] nm, nonlinear regression
Type in all cases: biochemical, Pseudomonas sp. (bin 31)
Settings in all cases: phosphate-buffered saline pH 7.4; 20°C (methods: room temperature); 0.1-2.4 mM substrate
Ple-solo = test system: T1, Ple-solo
T1 construct: codon-optimized synthetic gene in pCold II, E. coli Origami (DE3), His-tag purified plus size exclusion

Ple-tan1 = test system: T2, Ple-tan1
T2 construct: codon-optimized synthetic gene in pCold II, E. coli Origami (DE3), His-tag purified plus size exclusion

Ple-tan2 = test system: T3, Ple-tan2
T3 construct: codon-optimized synthetic gene in pCold II, E. coli Origami (DE3), His-tag purified

## CCCC(=O)Oc1ccc([N+](=O)[O-])cc1 [para-nitrophenyl butyrate]
Ple-solo
  Km: 254 ± 55 µM
Ple-tan1
  Km: 454 ± 54 µM
Ple-tan2
  Km: 1420 ± 94 µM
